Structures can show the parent of a compound that is named as a salt.
Experiments:
[1] = tested on: rhIL-2 stimulated STAT5 phosphorylation in isolated human T cells; assay: Human T Cell Assay: Inhibition of pSTAT5; format: cell-based
Description: Human T Cell Assay: Inhibition of pSTAT5
An assay measuring the efficacy of JAK inhibitors on the functional response of recombinant human interleukin-2 (rhIL-2) stimulated STAT5 phosphorylation in isolated human T cells.
Human whole blood from individual donors was collected from the phlebotomy unit on-site. Peripheral venous blood (30-60 mL) from healthy volunteers of either sex was used as the source of T cells. T cell isolation from venous whole blood is routinely performed in a class II microbiological safety cabinet. Each sample was collected into between 3 and 6 10 mL Sodium Heparin Vacutainer tubes (BD #367874). The blood was poured into sterile 50 mL conicals (Corning #430828) and incubated with the T cell Rosette Sep Cocktail (Stemcell Technologies #15061) at 50 μL/mL antibody/blood ratio for 20 min. with shaking at room temperature. The blood/antibody mixture was then diluted 1:2 with PBS (Pfizer media prep)/2% FBS (Sigma #F4135) and 30 mL of the mixture was layered onto 15 mL Ficoll-Hypaque (GE Healthcare #17-1440-03) in 50 mL conical tubes. The tubes were then centrifuged at 1200×g for 20 min. at room temperature with no brake. Following centrifugation the T cells formed a buffy coat between the Ficoll-Hypaque and plasma layers. The plasma above the buffy coats was removed to within 5 mm of the buffy coat using a sterile Pasteur pipette. The buffy coats were then collected into fresh sterile 50 mL conical tubes containing 25 mL PBS/2% FBS (2 buffy coats per 50 mL conical). PBS/2% FBS was added to the buffy coat cells such that the final volume in the tube was 50 mL. The tubes were then centrifuged at 200×g for 15 min. at room temperature. The supernatant was discarded and the pellet re-suspended in 10-20 mL of DMEM (Pfizer media prep) Assay media/0.2% BSA (Miltenyi #130-091-376). A differential cell count was performed using a haemacytometer and cells were diluted to 1.1×10^6 T cells/ml in DMEM/0.2% BSA media. Compounds (10 mM-0.3 μM) were diluted with Hanks Balanced Salt Solution (HBSS) (Sigma #H6648) at 1:100 dilution. Immediately following cell isolation and compound dilution, 90 μl/well of T cells (˜1×10^6/ml) in assay medium (DMEM+0.2% BSA) was added to the VWR Deep well V bottom plate (#3906-520-300). 10 μl/well of compound (final concentration range of 10 μM-0.3 nM with 0.1% DMSO) or 0.1% DMSO in HBSS as controls was added to the appropriate wells. Plates were incubated for 1 hour at 37° C., 5% CO2 incubator. 10 μl of 3.3 μg/mL rhIL-2 (R&D Systems #202-IL) was added to the cells (300 ng/ml final assay concentration). Wells containing T cells, medium with 0.1% DMSO and no rhIL-2 were used as background controls. Plates were incubated for 15 min at 37° C. After rhIL-2 stimulation, 800 μL of cold PBS/0.1% BSA was added and the plates were centrifuged at 1400 rpm for 5 min at 4° C. Supernatant was aspirated and 100 μL of ice-cold MSD lysis buffer containing protease and phosphatase inhibitors from Phospho-STAT5a/b Tyr694 assay kit (Meso-Scale Discovery #K150IGD) was added to the cell pellet. Plates were shaken for 30 min. at 4° C. and then frozen overnight. The following day, cell lysates were assayed using the MSD ELISA kit protocol for detection of pSTAT5.
Data were collected and transformed into percent inhibition and calculated using the following formula: […]

[2] = tested on: rhIFNγ stimulated STAT-3 phosphorylation in the A549 human epithelial cell line; assay: A549 Cell Assay: Inhibition of pSTAT3; format: cell-based; settings: Homo sapiens; A549 cells
Summary of the method: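 Percent inhibition of STAT3 Tyr705 phosphorylation was measured by MSD immunoassay of cell lysates. A549 cells were given compound for 1 h at 37° C (final 0.3 nM to 10 μM, 0.1% DMSO, in 0.2% BSA DMEM), followed by 30 min of rhIFNγ stimulation at 20 ng/mL final. Unstimulated DMSO wells served as background.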

TYK2 = TYK2 (Homo sapiens (Human), UniProt P29597); assay: JAK Caliper Enzyme Assay at 1 mM ATP (TYK2); format: biochemical; settings: Caliper assay at 1 mM ATP
TYK2, sequence (P29597 whole entry): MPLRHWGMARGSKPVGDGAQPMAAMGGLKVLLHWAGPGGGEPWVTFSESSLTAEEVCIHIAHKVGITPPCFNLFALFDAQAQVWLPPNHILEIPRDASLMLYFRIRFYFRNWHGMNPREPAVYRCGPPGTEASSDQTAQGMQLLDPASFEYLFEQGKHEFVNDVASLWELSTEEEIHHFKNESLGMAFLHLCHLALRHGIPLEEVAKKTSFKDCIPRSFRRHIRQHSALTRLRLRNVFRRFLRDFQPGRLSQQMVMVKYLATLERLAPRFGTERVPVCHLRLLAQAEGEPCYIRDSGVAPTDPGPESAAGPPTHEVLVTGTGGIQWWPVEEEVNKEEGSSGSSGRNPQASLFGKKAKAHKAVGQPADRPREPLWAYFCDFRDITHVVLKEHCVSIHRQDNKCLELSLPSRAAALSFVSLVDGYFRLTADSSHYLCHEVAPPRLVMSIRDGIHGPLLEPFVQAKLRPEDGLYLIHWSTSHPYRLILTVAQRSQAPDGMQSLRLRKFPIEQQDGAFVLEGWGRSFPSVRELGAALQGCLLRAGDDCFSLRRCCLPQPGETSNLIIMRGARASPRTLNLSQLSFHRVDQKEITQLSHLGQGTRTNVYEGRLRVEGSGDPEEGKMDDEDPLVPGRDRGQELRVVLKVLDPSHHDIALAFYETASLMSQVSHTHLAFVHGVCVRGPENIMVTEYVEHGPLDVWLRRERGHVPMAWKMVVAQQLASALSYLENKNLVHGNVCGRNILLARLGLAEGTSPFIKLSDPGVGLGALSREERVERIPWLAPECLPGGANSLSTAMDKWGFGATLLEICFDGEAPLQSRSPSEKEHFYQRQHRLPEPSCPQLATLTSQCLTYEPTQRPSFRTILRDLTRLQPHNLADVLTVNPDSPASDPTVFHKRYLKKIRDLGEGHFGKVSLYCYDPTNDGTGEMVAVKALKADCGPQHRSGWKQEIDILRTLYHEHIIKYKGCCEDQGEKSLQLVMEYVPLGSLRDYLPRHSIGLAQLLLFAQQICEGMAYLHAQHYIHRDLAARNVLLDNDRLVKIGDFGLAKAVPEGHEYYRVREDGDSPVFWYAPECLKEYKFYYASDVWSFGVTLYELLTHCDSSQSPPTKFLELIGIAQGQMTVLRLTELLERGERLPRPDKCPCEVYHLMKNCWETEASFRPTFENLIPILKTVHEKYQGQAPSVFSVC

JAK1 = JAK1 (Homo sapiens (Human), UniProt P23458); assay: JAK Caliper Enzyme Assay at 1 mM ATP (JAK1); format: biochemical; settings: Caliper assay at 1 mM ATP
JAK1, sequence (P23458 whole entry): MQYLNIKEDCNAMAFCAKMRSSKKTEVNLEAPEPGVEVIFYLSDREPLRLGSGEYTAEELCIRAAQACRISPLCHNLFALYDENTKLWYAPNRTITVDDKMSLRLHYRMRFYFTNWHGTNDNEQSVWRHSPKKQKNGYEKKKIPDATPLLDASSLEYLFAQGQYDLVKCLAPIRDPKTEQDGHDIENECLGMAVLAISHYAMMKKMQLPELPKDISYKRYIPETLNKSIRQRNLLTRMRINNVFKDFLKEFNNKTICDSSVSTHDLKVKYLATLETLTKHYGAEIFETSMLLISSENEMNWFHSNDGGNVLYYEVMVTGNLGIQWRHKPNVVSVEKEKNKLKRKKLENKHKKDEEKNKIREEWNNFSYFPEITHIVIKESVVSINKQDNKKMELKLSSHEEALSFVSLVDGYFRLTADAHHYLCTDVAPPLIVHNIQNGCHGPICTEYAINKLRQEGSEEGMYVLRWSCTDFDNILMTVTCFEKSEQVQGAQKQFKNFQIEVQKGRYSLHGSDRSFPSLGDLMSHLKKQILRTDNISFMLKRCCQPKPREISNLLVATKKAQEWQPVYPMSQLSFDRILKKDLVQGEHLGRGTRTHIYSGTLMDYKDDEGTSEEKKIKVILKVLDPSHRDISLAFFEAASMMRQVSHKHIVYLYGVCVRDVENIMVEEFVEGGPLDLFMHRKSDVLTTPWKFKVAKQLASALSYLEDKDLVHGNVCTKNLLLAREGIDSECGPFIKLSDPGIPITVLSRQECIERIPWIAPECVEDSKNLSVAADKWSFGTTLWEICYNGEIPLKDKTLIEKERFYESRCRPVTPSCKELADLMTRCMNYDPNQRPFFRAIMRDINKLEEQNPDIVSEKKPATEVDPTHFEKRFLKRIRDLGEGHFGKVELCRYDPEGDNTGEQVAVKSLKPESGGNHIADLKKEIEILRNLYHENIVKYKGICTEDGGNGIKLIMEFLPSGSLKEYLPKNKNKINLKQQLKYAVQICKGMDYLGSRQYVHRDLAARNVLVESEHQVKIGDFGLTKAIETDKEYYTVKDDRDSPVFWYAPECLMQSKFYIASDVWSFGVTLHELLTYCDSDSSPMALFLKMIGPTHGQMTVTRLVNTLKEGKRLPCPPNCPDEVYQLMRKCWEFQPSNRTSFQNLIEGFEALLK

JAK2 = JAK2 (Homo sapiens (Human), UniProt O60674); assay: JAK Caliper Enzyme Assay at 1 mM ATP (JAK2); format: biochemical; settings: Caliper assay at 1 mM ATP
JAK2, sequence (O60674 whole entry): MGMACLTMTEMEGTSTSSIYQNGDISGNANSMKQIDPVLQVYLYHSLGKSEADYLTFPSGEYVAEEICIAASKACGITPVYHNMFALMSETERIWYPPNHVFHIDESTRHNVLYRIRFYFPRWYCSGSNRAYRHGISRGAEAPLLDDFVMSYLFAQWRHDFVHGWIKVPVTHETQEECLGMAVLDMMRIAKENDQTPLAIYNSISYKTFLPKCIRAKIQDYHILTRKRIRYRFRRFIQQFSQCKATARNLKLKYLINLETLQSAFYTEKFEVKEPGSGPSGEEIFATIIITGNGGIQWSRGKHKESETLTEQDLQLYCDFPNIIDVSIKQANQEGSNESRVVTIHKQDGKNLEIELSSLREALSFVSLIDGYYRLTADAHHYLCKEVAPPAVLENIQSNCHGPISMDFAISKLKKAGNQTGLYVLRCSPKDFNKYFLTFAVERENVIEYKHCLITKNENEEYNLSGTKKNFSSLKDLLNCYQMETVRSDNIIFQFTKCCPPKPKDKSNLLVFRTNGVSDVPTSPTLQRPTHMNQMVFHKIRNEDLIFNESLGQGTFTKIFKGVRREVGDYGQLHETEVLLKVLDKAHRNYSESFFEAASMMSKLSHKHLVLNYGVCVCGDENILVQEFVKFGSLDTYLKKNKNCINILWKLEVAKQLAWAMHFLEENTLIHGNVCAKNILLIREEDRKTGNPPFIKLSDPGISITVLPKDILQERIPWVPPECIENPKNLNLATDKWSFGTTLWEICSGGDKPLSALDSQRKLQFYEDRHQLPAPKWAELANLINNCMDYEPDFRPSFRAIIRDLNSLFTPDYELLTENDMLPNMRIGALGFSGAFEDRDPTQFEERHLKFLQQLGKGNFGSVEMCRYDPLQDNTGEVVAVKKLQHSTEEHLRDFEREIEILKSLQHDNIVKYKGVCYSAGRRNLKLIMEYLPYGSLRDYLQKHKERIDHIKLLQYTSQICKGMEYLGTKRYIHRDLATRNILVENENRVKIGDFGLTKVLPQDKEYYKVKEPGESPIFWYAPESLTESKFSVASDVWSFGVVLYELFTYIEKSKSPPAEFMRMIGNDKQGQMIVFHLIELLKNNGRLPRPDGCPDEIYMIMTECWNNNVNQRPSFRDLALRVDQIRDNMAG

JAK3 = JAK3 (Homo sapiens (Human), UniProt P52333); assay: JAK Caliper Enzyme Assay at 1 mM ATP (JAK3); format: biochemical; settings: Caliper assay at 1 mM ATP
JAK3, sequence (P52333 whole entry): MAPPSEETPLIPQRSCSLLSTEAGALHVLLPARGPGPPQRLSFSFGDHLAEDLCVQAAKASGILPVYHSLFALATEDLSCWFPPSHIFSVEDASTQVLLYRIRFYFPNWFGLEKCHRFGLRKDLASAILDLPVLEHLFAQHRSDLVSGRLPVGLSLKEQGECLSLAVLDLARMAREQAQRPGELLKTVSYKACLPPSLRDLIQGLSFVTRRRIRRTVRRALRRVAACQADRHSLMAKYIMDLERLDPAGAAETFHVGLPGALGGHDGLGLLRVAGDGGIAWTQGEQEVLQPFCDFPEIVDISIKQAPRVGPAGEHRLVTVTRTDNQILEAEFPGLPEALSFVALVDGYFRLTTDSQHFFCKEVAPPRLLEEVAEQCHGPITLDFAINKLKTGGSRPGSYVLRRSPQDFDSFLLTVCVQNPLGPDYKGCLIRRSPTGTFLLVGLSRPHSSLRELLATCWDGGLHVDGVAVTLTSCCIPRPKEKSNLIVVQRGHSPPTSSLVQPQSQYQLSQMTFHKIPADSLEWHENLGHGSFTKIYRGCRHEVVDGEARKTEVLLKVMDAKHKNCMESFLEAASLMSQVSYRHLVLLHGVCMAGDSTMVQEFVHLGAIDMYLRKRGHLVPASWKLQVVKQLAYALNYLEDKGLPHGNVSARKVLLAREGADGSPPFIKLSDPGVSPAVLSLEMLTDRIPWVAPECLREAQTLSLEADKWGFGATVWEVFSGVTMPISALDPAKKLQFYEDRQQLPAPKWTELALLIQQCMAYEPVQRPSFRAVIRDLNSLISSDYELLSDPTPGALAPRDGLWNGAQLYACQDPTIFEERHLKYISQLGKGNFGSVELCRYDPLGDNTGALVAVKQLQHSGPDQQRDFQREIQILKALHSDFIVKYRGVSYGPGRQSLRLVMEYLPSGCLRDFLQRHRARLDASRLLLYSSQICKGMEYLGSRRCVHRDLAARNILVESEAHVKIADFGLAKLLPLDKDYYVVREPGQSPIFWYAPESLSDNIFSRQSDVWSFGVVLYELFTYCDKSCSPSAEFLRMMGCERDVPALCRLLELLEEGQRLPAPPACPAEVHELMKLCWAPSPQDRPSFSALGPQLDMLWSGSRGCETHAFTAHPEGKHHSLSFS

| SMILES | IC50 [1] [µM] | IC50 [2] [µM] | IC50 (TYK2) [µM] | IC50 (JAK1) [µM] | IC50 (JAK2) [µM] | IC50 (JAK3) [µM] |
| --- | --- | --- | --- | --- | --- | --- |
| CN(c1ccccc1CNc1nc(-c2cc(F)c(O)cc2CC(F)(F)F)cc2[nH]nc(C(N)=O)c12)S(C)(=O)=O [Example 77, 6-[5-Fluoro-4-hydroxy-2-(2,2,2-trifluoroethyl)phenyl]-4-({2-[methyl(methylsulfonyl)amino]benzyl}amino)-1H-pyrazolo[4,3-c]pyridine-3-carboxamide] | 0.0599 | 0.0329 |  |  |  |  |
| CNC(=O)c1n[nH]c2cc(-c3cc(F)c(O)cc3CC(F)(F)F)nc(NCc3ccccc3N(C)S(C)(=O)=O)c12 [Example 20, 6-[5-fluoro-4-hydroxy-2-(2,2,2-trifluoroethyl)phenyl]-N-methyl-4-({2-[methyl(methylsulfonyl)amino]benzyl}amino)-1H-pyrazolo[4,3-c]pyridine-3-carboxamide] | 0.0319 | 0.0188 | 0.0209 | 0.0036 | 0.0166 | 0.0953 |
| Cc1ccc(NC(=O)c2n[nH]c3cc(-c4cc(F)c(O)cc4CC(F)(F)F)nc(NCc4ccccc4N(C)S(C)(=O)=O)c23)cn1 [Example 76, 6-[5-Fluoro-4-hydroxy-2-(2,2,2-trifluoroethyl)phenyl]-4-({2-[methyl(methylsulfonyl)amino]-benzyl}amino)-N-(6-methylpyridin-3-yl)-1H-pyrazolo[4,3-c]pyridine-3-carboxamide] | 0.121 | 0.325 |  |  |  |  |
| CC(=O)N1CCc2[nH]c(-c3n[nH]c4nc(-c5cc(F)c(O)cc5CC(F)(F)F)nc(NCc5cc(O)ccc5N(C)S(C)(=O)=O)c34)nc2C1 [Example 170, N-{2-[({3-(5-Acetyl-4,5,6,7-tetrahydro-1H-imidazo[4,5-c]pyridin-2-yl)-6-[5-fluoro-4-hydroxy-2-(2,2,2-trifluoroethyl)phenyl]-1H-pyrazolo[3,4-d]pyrimidin-4-yl}amino)methyl]-4-hydroxyphenyl}-N-methylmethanesulfonamide] | 0.767 | 1.36 |  |  |  |  |
| CCc1cc(O)c(F)cc1-c1cc2[nH]ncc2c(NCc2cc(C)ccc2N(C)S(C)(=O)=O)n1 [Example 132, N-[2-({[6-(2-ethyl-5-fluoro-4-hydroxyphenyl)-1H-pyrazolo[4,3-c]pyridin-4-yl]amino}methyl)-4-methylphenyl]-N-methylmethanesulfonamide hydrochloride] | 0.206 | 0.257 |  |  |  |  |

Further lines, with some results ahead:

| IC50 [1] [µM] | IC50 [2] [µM] | SMILES | IC50 (TYK2) [µM] | IC50 (JAK1) [µM] | IC50 (JAK2) [µM] | IC50 (JAK3) [µM] |
| --- | --- | --- | --- | --- | --- | --- |
| 0.0347 | 0.0101 | CCc1cc(O)c(F)cc1-c1cc2[nH]ncc2c(NCc2cc(Cl)ccc2N(C)S(C)(=O)=O)n1 [Example 133, N-[4-chloro-2-({[6-(2-ethyl-5-fluoro-4-hydroxyphenyl)-1H-pyrazolo[4,3-c]pyridin-4-yl]amino}methyl)phenyl]-N-methylmethanesulfonamide hydrochloride] |  |  |  |  |
| 0.0404 | 0.0319 | CCc1cc(O)c(F)cc1-c1nc(NCc2ccccc2N(C)S(C)(=O)=O)c2c(C(=O)NC)n[nH]c2n1 [Example 93, 6-(2-Ethyl-5-fluoro-4-hydroxyphenyl)-N-methyl-4-((2-(N-methylmethylsulfonamido)benzyl)amino)-1H-pyrazolo[3,4-d]pyrimidine-3-carboxamide] |  |  |  |  |
| 0.0534 | 0.277 | CCc1cc(O)c(F)cc1-c1cc2[nH]nc(C(=O)Nc3ccc(C)nc3)c2c(NCc2ccccc2N(C)S(C)(=O)=O)n1 [Example 56, 6-(2-ethyl-5-fluoro-4-hydroxyphenyl)-4-({2-[methyl(methylsulfonyl)amino]benzyl}amino)-N-(6-methylpyridin-3-yl)-1H-pyrazolo[4,3-c]pyridine-3-carboxamide] |  |  |  |  |
| 0.0243 | 0.0074 | CCc1cc(O)c(F)cc1-c1cc2[nH]ncc2c(NCc2ccccc2N(C)S(C)(=O)=O)n1 [Example 131, N-[2-({[6-(2-Ethyl-5-fluoro-4-hydroxyphenyl)-1H-pyrazolo[4,3-c]pyridin-4-yl]amino}methyl)phenyl]-N-methylmethanesulfonamide] |  |  |  |  |
